Measurements reported in patent EP4635958A1, “PYRIMIDINE-CONTAINING POLYCYCLIC DERIVATIVE INHIBITOR, AND PREPARATION METHOD THEREFOR AND USE THEREOF” (Shanghai Hansoh Biomedical Co., Ltd., priority 2022, dated 2024).

Experiments:
[1] = test system: human colorectal cancer cell line (GP2D); assay: Anti-tumor efficacy in mouse transplanted tumor model of human colorectal cancer cell line (GP2D); format: in vivo, mice (BALB/c nude); details: 30mpk, PO*BID, Day 14
AsPC-1 = assay: Inhibition of proliferation of KRAS G12D mutant tumor cell line AsPC-1 (CellTiter-Glo); format: cell-based
Procedure, shortened: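 KRAS G12D-mutant AsPC-1 cells plated overnight at 37 °C/5% CO2, then exposed to serial compound dilutions (DMSO/medium, vehicle control) for about 72 h. Viability read by CellTiter-Glo luminescence; inhibition rate vs concentration fitted by nonlinear regression for IC50.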

[2] = test system: human colorectal cancer cell line (GP2D); assay: Anti-tumor efficacy in mouse transplanted tumor model of human colorectal cancer cell line (GP2D); format: in vivo, mice (BALB/c nude); details: PO*BID
From the text: 8-10 week old female conventional immunodeficient mice (BALB/c nude) with a body weight of 18 g-22 g were used as experimental animals, and a transplanted tumor model of human colorectal cancer cell line (GP2D) was used to conduct in vivo efficacy experiments to test the anti-tumor results of the example compounds after gavage administration.
The example compounds of the present invention, made in house.
A certain amount of the example compound was weighed, and an appropriate amount of 10% vehicle (Solutol HS15) was added. The mixture was stirred on a magnetic stirrer for 0.5 h to formulate a homogeneous suspension at the desired concentration.
The human colorectal cancer cell line (GP2D) was derived from COBIOER BIOSCIENCES CO., LTD, cultured on DMEM medium (Gibco, 11995-065) supplemented with 10% fetal calf serum (Gibco, 10091-148) and 1% penicillin/streptomycin (Gibco, 15140-122) and observed under a microscope (Thermo Fisher, 311). The cells were routinely passaged when the cells reached 80%-90% confluence in the culture flask. The passaged cells were cultured in a 37°C, 5% CO2 incubator (Thermo Fisher, 311).
Under aseptic conditions, human colorectal cancer cells (GP2D) in the logarithmic growth phase were harvested using 0.25% trypsin-EDTA (Gibco, 25200-056), washed and resuspended with phosphate buffer. The cell suspension was mixed with Matrigel (Corning, 356234) at a 1 : 1 ratio (v/v) and implanted subcutaneously into the right anterior dorsal region of immunodeficient mice (BALB/c nude). Each mouse was inoculated with 5*10^6 cells in a volume of 100 microliters (µL). After inoculation, when the tumor volume reached 100-200 mm^3, the mice would be evenly randomized into 5 groups based on the tumor size, with 5 mice per group, for in vivo efficacy experiments. The positive control group was the compound MRTX-1133, and the negative control group was the vehicle group.
Mode of administration: The positive control group was intraperitoneally injected, and the example compounds were administered orally.
Twice a week, the long and short diameters of the tumor were measured using a vernier caliper, and the tumor volume (mm^3) was calculated using the formula: V = 0.5*D*d*d, where D and d are the long and short diameters of the tumor, respectively. The anti-tumor efficacy was determined by dividing the average increase in tumor volume of compound-treated animals by the average increase in tumor volume of untreated animals. The calculation formula for tumor inhibition rate was: When there is no tumor regression, TGI(%) = 100-[(Vt-V0) administration group/(Vt-V0) vehicle control group]*100%. When tumor regression occurs, TGI(%) = [1-(V1-V0) administration group/V0 vehicle control group]* 100%. All animals were euthanized after the experiment.

[3] = Plasma stability test, dog plasma; format: in vitro ADME; details: for half-life: read-out: t1/2 (converted);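 as to all read-outs here: parent compound left in dog plasma quantified by LC-MS with positive electrospray ionization, selected reaction monitoring and an internal standard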
Method: Liquid chromatography-mass spectrometer, centrifuge, vortexer, pipette, continuous dispenser, 96-well plate, 50% methanol aqueous solution, acetonitrile solution containing internal standard, blank matrix (plasma of rat, dog, or human), Propantheline (propantheline bromide), Mevinolin (lovastatin), and test compound.
After whole blood was collected from animals or humans, it was placed in a test tube containing an anticoagulant and centrifuged at 3500 rpm for 10 min to collect the upper pale yellow plasma.
The compound was weighed and the stock solution was formulated with DMSO and the working solution was formulated with 100 mM phosphate buffer.
• Instrument: API4000 liquid chromatography-mass spectrometer, AB Company, USA; • the ion source was electrospray ionization source (ESI); • drying gas (N2) temperature was 500°C; • electrospray voltage was 5500V; • the detection method was positive ion detection; • the scanning method was selected reaction monitoring (MRM); • the scanning time was 0.1s.

KRAS WT = KRAS WT (Homo sapiens, UniProt P01116); assay: KRAS WT biochemical assay (Table 1, no method of its own); format: binding
[4] = Homo sapiens, ASPC1, about 72 h

Sequence of KRAS WT (P01116 1-188 isoform P01116-2): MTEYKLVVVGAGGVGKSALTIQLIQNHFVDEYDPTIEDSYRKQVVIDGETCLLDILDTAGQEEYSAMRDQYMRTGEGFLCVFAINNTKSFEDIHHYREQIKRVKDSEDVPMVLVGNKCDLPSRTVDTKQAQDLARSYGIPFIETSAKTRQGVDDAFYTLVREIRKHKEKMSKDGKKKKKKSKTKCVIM

Row | Compound | Tumor volume (mm^3, Mean ± SD) Day 14 [1] [mm^3] | Tumor volume (mm^3, Mean ± SD) Day 0 ([2]; 30mpk) [mm^3] | TGI(%) Day 14 ([2]; 30mpk) [%] | ΔT/ΔC(%) Day 14 ([2]; 30mpk) [%] | Tumor volume (mm^3, Mean ± SD) Day 0 ([2]; 100mpk) [mm^3] | TGI(%) Day 14 ([2]; 100mpk) [%] | Tumor volume (mm^3, Mean ± SD) Day 14 ([2]; 100mpk) [mm^3] | ΔT/ΔC(%) Day 14 ([2]; 100mpk) [%] | Remaining rate (%) 0 min ([3]; Dog plasma, 37°C, 0 min) [%] | Remaining rate (%) 15 min ([3]; Dog plasma, 37°C, 15 min) [%] | Remaining rate (%) 30 min ([3]; Dog plasma, 37°C, 30 min) [%] | Remaining rate (%) 60 min ([3]; Dog plasma, 37°C, 60 min) [%] | Remaining rate (%) 120 min ([3]; Dog plasma, 37°C, 120 min) [%] | half-life ([3]; Dog plasma, 37°C) [min] | IC50 (AsPC-1; [4]) [nM] | also measured
1 | 4-((5S,5aS,6R,9S)-12-((1-((((R)-4-(difluoromethylene)-2-methylpiperidin-1-yl)methyl)cyclopropyl)methoxy)-1-fluoro-5-(methyl-d3)-5a,6,7,8,9,10-hexahydro-5H-4-oxa-3,10a,11,13,14-pentaaza-6,9-methylnaphtho[1,8-ab]hept-2-yl)-5-ethynyl-6-fluoronaphthalen-2-ol [Example 162] | 130 | 167 | 122.15 | 16.47 | 167 | 133.67 | 111 | 14.04 |  |  |  |  |  |  |  | IC50 (AsPC-1; about 72 h): 4 nM
2 | C#Cc1c(F)ccc2cc(O)cc(-c3nc4c5c(nc(OCC6(CN7CCC(=C(F)F)CC7)CC6)nc5c3F)N3C[C@H]5CC[C@H](N5)[C@H]3CO4)c12 [Example 1-1, 4-((5aS,6S,9R)-12-((1-((4-(difluoromethylene)piperidin-1-yl)methyl)cyclopropyl)methoxy)-1-fluoro-5a,6,7,8,9,10-hexahydro-5H-4-oxa-3,10a,11,13,14-pentaaza-6,9-methylenenaphtho[1,8-ab]heptalene-2-yl)-5-ethynyl-6-fluoronaphthalen-2-ol] |  |  |  |  |  |  |  |  | 100.00 | 100.25 | 105.57 | 104.40 | 93.99 | 2940 |  | IC50 (KRAS WT): 79 nM
3 | C#Cc1c(F)ccc2cc(O)cc(-c3nc4c5c(nc(OCC6(CN7CCC(=CF)CC7)CC6)nc5c3F)N3C[C@H]5CC[C@H](N5)[C@H]3[C@H](C)O4)c12 [Example 129, 5-ethynyl-6-fluoro-4-((5S,5aS,6S,9R)-1-fluoro-12-((1-((4-(fluoromethylene)piperidin-1-yl)methyl)cyclopropyl)methoxy)-5-methyl-5a,6,7,8,9,10-hexahydro-5H-4-oxa-3,10a,11,13,14-pentaaza-6,9-methylnaphtho[1,8-ab]hept-2-yl)naphthalen-2-ol] | 112 | 167 | 133.12 | 14.15 | 167 | 153.01 | 79 | 9.94 | 100.00 | 100.48 | 100.22 | 97.42 | 110.22 |  | 3.6 | t1/2 ([3]; Dog plasma, 37°C): ∞
4 | [2H]C([2H])([2H])[C@@H]1Oc2nc(-c3cc(O)cc4ccc(F)c(C#C)c34)c(F)c3nc(OCC4(CN5CCC(=C(F)F)CC5)CC4)nc(c23)N2C[C@H]3CC[C@H](N3)[C@@H]12 [Example 161, 4-((5S,5aS,6S,9R)-12-((1-((4-(difluoromethylene)piperidin-1-yl)methyl)cyclopropyl)methoxy)-1-fluoro-5-(methyl-d3)-5a,6,7,8,9,10-hexahydro-5H-4-oxa-3,10a,11,13,14-pentaaza-6,9-methylnaphtho[1,8-ab]hept-2-yl)-5-ethynyl-6-fluoronaphthalen-2-ol] | 110 | 167 | 134.18 | 13.93 | 167 | 153.75 | 77 | 9.79 |  |  |  |  |  | 1890 | 4.4 | Remaining rate (%) 0 min ([3]; dog, plasma, 0 h): 100.00%; Remaining rate (%) 15 min ([3]; dog, plasma, 0.25 h): 91.74%; Remaining rate (%) 30 min ([3]; dog, plasma, 0.5 h): 92.09%; Remaining rate (%) 60 min ([3]; dog, plasma, 1 h): 90.97%; Remaining rate (%) 120 min ([3]; dog, plasma, 2 h): 88.28%
